Test systems include 786-0 renal; NCI/ADR-RES ovarian; HOP-92 NSCLC; UO-31 renal; SNB-19 CNS; MOLT-4 leukemia; CCRF-CEM leukemia; OVCAR-3 ovarian; HL-60(TB) leukemia; SF-268 CNS.
Common to all, as to assay: inhibition of tumour cell growth, NCI panel, 48 h

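How tested: cells in 96-well plates exposed to compound for 48 hours at five concentrations. Here, GI50 denotes the concentration required for 50% inhibition of growth. TGI marks complete inhibition of growth.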

On to `COC(=O)[C@]12CC[C@@H](C)[C@H](C)[C@@H]1C1=CC[C@@H]3[C@@]4(C)C[C@@H](OC(=O)c5ccco5)[C@H](O)[C@@](C)(CO)[C@@H]4[C@H](O)C[C@@]3(C)[C@]1(C)CC2`, for which the GI50 was 2.1 µM in the assay with 786-0 renal; 2.59 µM in the assay on NCI/ADR-RES ovarian; 2.59 µM in the assay on HOP-92 NSCLC; 2.02 µM in the assay with UO-31 renal; 3.47 µM in the assay with SNB-19 CNS; 2.04 µM in the assay with MOLT-4 leukemia. Also, the GI50 in the assay with CCRF-CEM leukemia was 2.41 µM; in the assay with OVCAR-3 ovarian, 2.19 µM; in the assay with HL-60(TB) leukemia, 2.08 µM; in the assay with SF-268 CNS, 3.26 µM. Besides, the TGI in the assay on 786-0 renal was determined as 4.46 µM; with NCI/ADR-RES ovarian, 7.12 µM; in the assay on HOP-92 NSCLC, 6.19 µM; in the assay on UO-31 renal, 7.42 µM; with SNB-19 CNS it was 15 µM; with MOLT-4 leukemia it was 4.44 µM. In addition, the TGI in the assay with CCRF-CEM leukemia was found to be 5.77 µM; in the assay with OVCAR-3 ovarian, 4.73 µM; with HL-60(TB) leukemia, 5.46 µM; with SF-268 CNS it was 14.2 µM.

Turning to `Cc1cccc(CN(C)c2ccc(CO)c(Cl)c2)c1`, the GI50 in the assay with 786-0 renal was 13.2 µM; in the assay with NCI/ADR-RES ovarian, 17.2 µM; in the assay on HOP-92 NSCLC it was 3.46 µM; with UO-31 renal, 11.9 µM; in the assay with SNB-19 CNS, 28.4 µM; with MOLT-4 leukemia, 22.2 µM. Moreover, the GI50 in the assay with CCRF-CEM leukemia was 27 µM; in the assay on OVCAR-3 ovarian, 4.2 µM; with HL-60(TB) leukemia, 23.8 µM; with SF-268 CNS it was 33.7 µM. Besides, the TGI with 786-0 renal is 34.1 µM; in the assay on NCI/ADR-RES ovarian, 59.3 µM; with HOP-92 NSCLC it was 28.2 µM; in the assay with UO-31 renal, 64.3 µM; in the assay on SNB-19 CNS, above 100 µM; in the assay with MOLT-4 leukemia it was above 75.5 µM. Also, the TGI was above 100 µM with CCRF-CEM leukemia, 17 µM with OVCAR-3 ovarian, 82.6 µM in the assay with HL-60(TB) leukemia and above 100 µM in the assay with SF-268 CNS.

As for `N#Cc1ccc(Oc2nccc(-c3c(-c4ccc(F)cc4)ncn3C3CCNCC3)n2)cc1`, the GI50 with 786-0 renal is above 25 µM; in the assay on NCI/ADR-RES ovarian, above 25 µM; in the assay on HOP-92 NSCLC, 4.04 µM; in the assay with UO-31 renal it was 11.9 µM; in the assay with SNB-19 CNS it was above 25 µM; in the assay on MOLT-4 leukemia, 8.01 µM. For the same compound, the GI50 with CCRF-CEM leukemia was 7.79 µM; with OVCAR-3 ovarian it was above 25 µM; in the assay on HL-60(TB) leukemia, above 25 µM; in the assay on SF-268 CNS it was 24.6 µM. Also, the TGI with 786-0 renal is above 25 µM; with NCI/ADR-RES ovarian it was above 25 µM; with HOP-92 NSCLC, above 25 µM; with UO-31 renal, above 25 µM; with SNB-19 CNS it was above 25 µM; in the assay on MOLT-4 leukemia it was 20.8 µM. Also, the TGI with CCRF-CEM leukemia was 24.7 µM; in the assay with OVCAR-3 ovarian it was above 25 µM; in the assay on HL-60(TB) leukemia it was above 25 µM; in the assay on SF-268 CNS it was above 25 µM.

Take `C[N+](C)(C)CCOP(=O)(O)OP(=O)([O-])OCC1CCC(n2ccc(N)nc2=O)O1` (stereo not given): the TGI in the assay on 786-0 renal, in the assay on NCI/ADR-RES ovarian, in the assay with HOP-92 NSCLC, with UO-31 renal, in the assay with SNB-19 CNS and in the assay on MOLT-4 leukemia was above 100 µM each time. The TGI in the assay on CCRF-CEM leukemia, with OVCAR-3 ovarian, with HL-60(TB) leukemia and in the assay on SF-268 CNS was above 100 µM in each case.

With `O=C(CCCn1c2c(sc3ncccc32)c(=O)n2nnc(-c3ccccc3)c12)NCCc1cnc[nH]1`, the GI50 in the assay on 786-0 renal is 12.6 µM; with NCI/ADR-RES ovarian, 34.1 µM; in the assay with HOP-92 NSCLC, 17 µM; with UO-31 renal it was 11.9 µM; in the assay with SNB-19 CNS it was 10.8 µM; in the assay on MOLT-4 leukemia, 2.22 µM. Moreover, the GI50 is 0.222 µM in the assay with CCRF-CEM leukemia, 11 µM in the assay on OVCAR-3 ovarian, 1.41 µM with HL-60(TB) leukemia and 11.7 µM in the assay with SF-268 CNS. Further, the TGI with 786-0 renal is 25.7 µM; in the assay on NCI/ADR-RES ovarian, above 100 µM; in the assay on HOP-92 NSCLC, 39.5 µM; in the assay on UO-31 renal it was 26.7 µM; in the assay on SNB-19 CNS, 33.7 µM; with MOLT-4 leukemia it was 24.2 µM. The TGI was 4.48 µM in the assay with CCRF-CEM leukemia, 23.6 µM in the assay on OVCAR-3 ovarian, 4.76 µM with HL-60(TB) leukemia and 29.1 µM in the assay with SF-268 CNS.

`O=C(Oc1cccnc1)c1ccccc1Nc1ccnc(C(F)(F)F)c1`: the GI50 in the assay with 786-0 renal was 0.158 µM; in the assay on NCI/ADR-RES ovarian, 0.186 µM; with HOP-92 NSCLC it was 6.64 µM; in the assay with UO-31 renal, 3.84 µM; with SNB-19 CNS, 0.54 µM; in the assay with MOLT-4 leukemia, 0.0499 µM. Also, the GI50 was 0.0334 µM with CCRF-CEM leukemia, 0.141 µM in the assay on OVCAR-3 ovarian, 43.3 µM in the assay on HL-60(TB) leukemia and 0.333 µM in the assay with SF-268 CNS. Moreover, the TGI is 4.64 µM with 786-0 renal; above 100 µM with NCI/ADR-RES ovarian; above 100 µM in the assay with HOP-92 NSCLC; above 87.3 µM in the assay on UO-31 renal; above 100 µM in the assay on SNB-19 CNS; above 100 µM with MOLT-4 leukemia. Moreover, the TGI is above 100 µM in the assay on CCRF-CEM leukemia, 0.453 µM with OVCAR-3 ovarian, above 100 µM in the assay on HL-60(TB) leukemia and 14.4 µM in the assay on SF-268 CNS.

As for `COc1cc(/C=C/C(=O)C(=Cc2ccc(F)c(F)c2)C(=O)/C=C/c2ccc(O)c(OC)c2)ccc1O`, the GI50 is 2.32 µM in the assay with 786-0 renal; 4.06 µM with NCI/ADR-RES ovarian; 2.51 µM with HOP-92 NSCLC; 3.04 µM with UO-31 renal; 3.54 µM with SNB-19 CNS; 2.75 µM with MOLT-4 leukemia. For the same compound, the GI50 is 2.46 µM with CCRF-CEM leukemia, 1.91 µM with OVCAR-3 ovarian, 2.67 µM in the assay with HL-60(TB) leukemia and 2.74 µM with SF-268 CNS. The TGI in the assay with 786-0 renal is 5.5 µM; with NCI/ADR-RES ovarian, above 100 µM; in the assay with HOP-92 NSCLC, 6.05 µM; in the assay on UO-31 renal, 16.8 µM; in the assay on SNB-19 CNS it was 15.9 µM; in the assay on MOLT-4 leukemia it was above 100 µM. Besides, the TGI in the assay on CCRF-CEM leukemia was above 100 µM; in the assay with OVCAR-3 ovarian it was 4.78 µM; in the assay with HL-60(TB) leukemia, 6.85 µM; with SF-268 CNS, 12.5 µM.

The values are drawn from PubChem BioAssay (NCI).
